The values below come from article PMC8051587 (ACS chemical biology, 2020).

Experiment [1] deals with M2 WT. Particulars: read-out: apparent Ki; block of M2 WT; cited from earlier work.
For experiment [2], the target named is T1, full-length A/Udorn/72 M2 WT (Influenza A virus, UniProt P0DOF5).
Experiment [3] relates to A/WSN/33. As to conditions: plaque reduction assay; cited from earlier work. On the technique in general: Plaque reduction counts the foci of infection that form in a cell layer.
In experiment [4] the target is T1, full-length A/Udorn/72 M2 WT. As to conditions: 100 μM, mean ± SEM at 2 min of drug perfusion; ref [3]; cited from earlier work.

Where “and” joins values, the source holds several entries; their conditions need not be identical. Equal entries are not always repeated.

T1 sequence (P0DOF5 whole entry): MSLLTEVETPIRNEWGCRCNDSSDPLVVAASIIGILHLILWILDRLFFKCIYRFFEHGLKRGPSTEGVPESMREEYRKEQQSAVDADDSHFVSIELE

In the case of `NC12CC3CC(CC(C3)C1)C2` [Amantadine, amantadine], in experiment [1], the Ki was 300 nM.
What is called Kd is the free concentration of one partner at which half of the binding sites on the other are occupied at equilibrium, for simple one-to-one binding. Broadly, the koff is a measure of how fast the partners let go of each other. Low readings indicate slow dissociation, high ones fast dissociation. The term EC50 denotes the concentration that produces a half-maximal response. Turning to `c1csc(-c2cc(CNC34CC5CC(CC(C5)C3)C4)on2)c1` [Compound 6], the Kd in experiment [2] (calculated from the ratio koff/kon) was > 100000 nM. Besides, the koff in experiment [2] (inferred from extent of block and perfusion-limited block rate) is > 1 s⁻¹. For the same compound, in experiment [3], the EC50 was ~100 nM. Besides, the “Percent Block (%)” value in experiment [4] is 11% and 11 ± 1^g %.
